Experiments:
PC-3 = test: Nexin assay for apoptosis (Annexin-V-PE/7-AAD, flow cytometry); assay type: cell-based; details: 50 μM and 100 μM Q10, 24 hours, less than in PaCa2
Description: (§1) The 7AAD dye will enter into cells with permeabilized cell membranes; primarily those cells that are in late apoptosis. Annexin-V-PE is a dye that binds to Phosphotidyl serine, which is exposed on the outer surface of the plasma membrane in early apoptotic cells. The Nexin reagent thus can be used to differentiate between different populations of apoptotic cells in a flow cytometer.

MCF-7 = test: as above; assay type: cell-based; details: 50 μM and 100 μM Q10, 24 hours
Description: as §1

SK-MEL28 = test: as above; assay type: cell-based; details: 50 μM and 100 μM Q10, 24 hours
Description: as §1

[1] = system: Pancreatic Cancer Cells (PaCa2); test: Real-time PCR Diabetes Array; assay type: cell-based; details: 100 uM Q10
Method: Experiments were carried out essentially as described above.

[2] = system: Succinate Dehydrogenase (SDH) Subunit B; test: Western blot, Succinate Dehydrogenase B in mitochondrial preparations; assay type: cell-based; details: mitochondrial preparations of cancer cells
Method: The above blots were stripped by incubating for 30 minutes with methanol, followed by two 10 minute washes with TBS-T, then 30 minutes of incubation with Stripping buffer at 50 deg C., and followed by two washes with 100 ml or more of TBS-T for 30′ each. The blots were scanned in laser scanner to check for complete stripping. The blots were activated with methanol for 5 seconds, washed with water for 5 minutes, and TBST for 15 minutes. The blots were blocked for 1 hour with 5% blocking reagent in TBS-T at room temperature and then washed 3 times with TBS-T (1X−15′; 2X5′ each) and probed with the primary antibody for PKM2, SDHB or SDHC in 5% BSA in TBS-T by incubation overnight at 4 deg C. with gentle shaking. The primary antibody for SDHC (ABNOVA H00006391-M12; antimouse) was at 1:500 dilution. The primary antibody for SDHB was from Abcam ab4714-200; antimouse; at 1:1000 dilution. The primary antibody for Pyruvate Kinase M2 (PKM2) was from Novus Biologicals H00005315-D0IP; antirabbit; at 1:500 dilution. After incubation with primary antibodies, the membranes were washed 3 times with TBS-T (1X−15′; 2X5′ each) and probed with the secondary antibody (SDHB & C antimouse; and PKM2 antirabbit; 1:10,000 dilution) for 1 h on the orbital tilting shaker at room temperature. […]

HK-2 cells = test: Diabetes PCR array; assay type: cell-based, human; details: HK2(H) cells, 22 mM glucose; particularly 100 μM
Method: The HK-2 and HASMC cells are normally maintained in culture at 5.5 mM glucose, which is a concentration that corresponds to a range considered normal in human blood. However, in order to simulate a diabetic environment, both cell lines were subsequently maintained at 22 mM glucose, which corresponds to the range observed in human blood associated with chronic hyperglycemia. The cells were subsequently allowed to propagate over 3 passages so that the intracellular regulation processes were functionally adapted to mimic a diabetic state. The choice of cell line was based on the physiologic influence of diabetes on renal dysfunction and progression to end-stage renal disease (ESRD) in addition to the progressive pathophysiology of a compromised cardiovascular function.
The Diabetes PCR array (SABiosciences) offers a screen for 84 genes simultaneously.
A stringent analysis of the Real time PCR data of the HK-2 samples on the Diabetes Arrays (Cat #PAHS-023E, SABiosciences Frederick Md.) was made to exclude all results where gene regulation was not at least a two-fold regulation over HK-2 normal untreated cells with a p value of less than 0.05.

[3] = system: MCF-7 breast cancer cells; test: OCR and ECAR, SeaHorse XF analyzer; assay type: cell-based
Description: (SeaHorse Biosciences Inc, North Billerica, Mass.).
In contrast, cancer cells (e.g., MCF-7, PaCa-2) are inherently primed to culture at higher levels of glucose compared to normal cells due to their glycolytic phenotype for maintenance in culture.

COC1=C(OC)C(=O)C(C/C=C(\C)CC/C=C(\C)CC/C=C(\C)CC/C=C(\C)CC/C=C(\C)CC/C=C(\C)CC/C=C(\C)CC/C=C(\C)CC/C=C(\C)CCC=C(C)C)=C(C)C1=O [Q10, Coenzyme Q10]
early and late apoptotic population (PC-3): increase in both early and late apoptotic population
apoptotic population (MCF-7): increase only in early apoptotic population
apoptotic population (SK-MEL28): increase only in early apoptotic population
diabetes array genes (ABCC8, ACLY, ADRB3 ... IL4R, IL6 as listed) [1]: modulated by Q10 treatment
SDH protein levels [2]: increase SDH protein levels
CEACAM1 RNA transcript (HK-2 cells): highly upregulated
OCR values [3]: consistent reduction in OCR values
